Earlier results as cited in patent US20050287230A1, “Method of producing ginsenoside 20 (R)-Rh2 and composition of matter thereof” (priority 2004, published 2005).
Where two headings read alike, the source gives them in different places. One block for each compound: values may come before it.

Experiments:
[1] = mouse, orally taken
sarcoma 180 = details: 5 mg/kg dosage
[2] = tested on: Morris liver cancer, human cervical cancer, B16 malignant melanoma and Hela cells
HRA cells = details: dosage-dependent
[3] = subcutaneous injection 10 mg/kg
LAK cells = details: tumor patient
rhTNF-a = rhTNF-a (Homo sapiens, UniProt P01375); details: external experiment
Chain of rhTNF-a (P01375 77-233 limits assumed): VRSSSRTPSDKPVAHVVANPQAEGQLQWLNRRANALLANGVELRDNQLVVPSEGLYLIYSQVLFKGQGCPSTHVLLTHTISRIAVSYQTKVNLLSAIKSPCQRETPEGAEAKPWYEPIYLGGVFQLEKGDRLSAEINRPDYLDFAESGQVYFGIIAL

[4] = Stomach irrigation with 2 g/kg

Compound: Lentinan
acute toxicity LD50 [1]: > 1250 mg/kg
inhibition rate of anti-tumor (sarcoma 180): 97.5%
solubility in water: almost indissoluble

Compound: CC(C)=CCC[C@](C)(O)[C@H]1CC[C@]2(C)[C@@H]1[C@H](O)C[C@@H]1[C@@]3(C)CC[C@H](O[C@@H]4O[C@H](CO)[C@@H](O)[C@H](O)[C@H]4O)C(C)(C)[C@@H]3CC[C@]12C [ginsenoside Rh2, ginseng dialcohol-3-O-β-D-glucopyranoside]
inhibition of HL60 tumor strain (HL60): inhibit the human promyelcytic leukemia HL60 tumor strain significantly
inhibition of HL60 tumor strain (HL60; listed as ginsenoside-Rh2): significant effect
inhibition effect on the proliferation ([2]; 2-10 μg/ml in culture solution): different degrees of inhibition effect
inhibition on the proliferation function ([2]; external experiment): outstanding inhibition
effective range for inhibition of proliferation (HRA cells): 10˜100 μmol/L

Compound: CC(C)=CCC[C@](C)(O)[C@H]1CC[C@]2(C)[C@@H]1[C@H](O)C[C@@H]1[C@@]3(C)CC[C@H](O)C(C)(C)[C@@H]3[C@@H](O[C@@H]3O[C@H](CO)[C@@H](O)[C@H](O)[C@H]3O)C[C@]12C [ginsenoside-Rh1]
concentration that completely inhibits the proliferation (B16 melanoma cells): above 8.0 μg/ml

solubility in water: insoluble
Compound: C[C@H]1[C@H](C)CC[C@]2(C(=O)O)CC[C@]3(C)C(=CC[C@@H]4[C@@]5(C)CC[C@H](O)C(C)(C)[C@@H]5CC[C@]43C)[C@H]12 [Ursolic acid]
reversal of the inhibition function of MΦ (J744 macrophage; 50 μg/ml): partially deteriorates
reversal of the inhibition function of MΦ (J744 macrophage; 100 μg/ml): totally deteriorate
serum gorge invert ammonia enzyme [3]: can reduce

Compound: CC(C)=CCC[C@@](C)(O)[C@H]1CC[C@]2(C)[C@@H]1[C@H](O)C[C@@H]1[C@@]3(C)CC[C@H](O)C(C)(C)[C@@H]3[C@@H](O[C@@H]3O[C@H](CO)[C@@H](O)[C@H](O)[C@H]3O)C[C@]12C [ginsenoside 20(R)-Rh1]
inhibition of HL60 tumor strain (HL60): inhibit the human promyelcytic leukemia HL60 tumor strain significantly

Compound: CC(C)=CCC[C@](C)(O[C@@H]1O[C@H](CO)[C@@H](O)[C@H](O)[C@H]1O)[C@H]1CC[C@]2(C)[C@@H]1[C@H](O)C[C@@H]1[C@@]3(C)CC[C@H](O)C(C)(C)[C@@H]3[C@@H](O[C@@H]3O[C@H](CO)[C@@H](O)[C@H](O)[C@H]3O[C@@H]3O[C@@H](C)[C@H](O)[C@@H](O)[C@H]3O)C[C@]12C [ginsenoside Re]
level above which effect upon LAK activity appears (LAK cells): > 5 µg/mL

Compound: CC(C)=CCC[C@](C)(O[C@@H]1O[C@H](CO[C@@H]2OC[C@H](O[C@@H]3OC[C@@H](O)[C@H](O)[C@H]3O)[C@H](O)[C@H]2O)[C@@H](O)[C@H](O)[C@H]1O)[C@H]1CC[C@]2(C)[C@@H]1[C@H](O)C[C@@H]1[C@@]3(C)CC[C@H](O[C@@H]4O[C@H](CO)[C@@H](O)[C@H](O)[C@H]4O[C@@H]4O[C@H](CO)[C@@H](O)[C@H](O)[C@H]4O)C(C)(C)[C@@H]3CC[C@]12C [ginsenoside-Ra1]
increase of rhTNF-a activity (rhTNF-a): 134 times

Compound: CC(C)=CC[C@@H](O)C1=CC(=O)c2c(O)ccc(O)c2C1=O [Shikonin]
death [4]: no dead mouse
solubility in water: insoluble
